The values below come from patent publication US20160312240A1, “MODIFIED PYR/PYL RECEPTORS ACTIVATED BY ORTHOGONAL LIGANDS” (The Regents of the University of California, priority 2010, published 2016).

Test [1] deals with PYR1 (Arabidopsis thaliana, UniProt O49686). The following applies: cited from earlier work.
Test [2] addresses PYL1 (Arabidopsis thaliana, UniProt Q8VZS8). The following applies: cited from earlier work.
Test [3] concerns the target PYL2 (Arabidopsis thaliana, UniProt O80992). The following applies: cited from earlier work.
For test [4], the system named is PYR/PYL-PP2C protein-protein interactions. The test is described as follows: Yeast competition screen: reduction of ABA-promoted PYR/PYL-PP2C interaction. In kind it is cell-based. The settings on record: 100 nM ABA and 100 μM test chemical (1000-fold excess), yeast strains. The source says:
To isolate PYR1 orthogonal receptors, a two-step process was used. First, a large collection of compounds was screened to identify compounds that weakly interact with receptors, defined as such by their ability to displace receptor-bound ABA in competition experiments. Once weak binders were identified, those with the most desirable properties from an end-use perspective were used as targets for iterative mutagenesis and selection schemes. Pre-selection of weak-binding ligands improves the frequency of isolating new receptor proteins, because fewer alterations of the ligand binding site are required to achieve molecular recognition. However, pre-selection is not a prerequisite for success.
Pre-selection of ligands. 74 structurally diverse agrochemicals were obtained, selected from a larger set of approximately 1500 commercially available agrochemicals. These 74 compounds were tested for their ability to reduce ABA-promoted PYR/PYL-PP2C protein-protein interactions in suitable yeast strains when added at 1000-fold excess relative to ABA (i.e. 100 nM ABA and 100 μM test chemical).

The target of test [5] is T1, PYR1 mutant BTH-9 (Arabidopsis thaliana, UniProt O49686, F159L).
T1 construct: expressed in transfected cells; host or cells: Saccharomyces cerevisiae two-hybrid reporter strain expressing pAD-HAB1 (strain not restated for BTH)
T1 sequence (O49686 whole entry F159L): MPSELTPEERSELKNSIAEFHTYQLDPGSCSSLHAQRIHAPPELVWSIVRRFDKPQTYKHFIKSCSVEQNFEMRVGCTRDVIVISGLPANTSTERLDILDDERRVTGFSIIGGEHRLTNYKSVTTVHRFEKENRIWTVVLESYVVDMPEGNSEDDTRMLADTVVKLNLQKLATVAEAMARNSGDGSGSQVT
T1 sequence (Q9CAJ0 23-511 partner): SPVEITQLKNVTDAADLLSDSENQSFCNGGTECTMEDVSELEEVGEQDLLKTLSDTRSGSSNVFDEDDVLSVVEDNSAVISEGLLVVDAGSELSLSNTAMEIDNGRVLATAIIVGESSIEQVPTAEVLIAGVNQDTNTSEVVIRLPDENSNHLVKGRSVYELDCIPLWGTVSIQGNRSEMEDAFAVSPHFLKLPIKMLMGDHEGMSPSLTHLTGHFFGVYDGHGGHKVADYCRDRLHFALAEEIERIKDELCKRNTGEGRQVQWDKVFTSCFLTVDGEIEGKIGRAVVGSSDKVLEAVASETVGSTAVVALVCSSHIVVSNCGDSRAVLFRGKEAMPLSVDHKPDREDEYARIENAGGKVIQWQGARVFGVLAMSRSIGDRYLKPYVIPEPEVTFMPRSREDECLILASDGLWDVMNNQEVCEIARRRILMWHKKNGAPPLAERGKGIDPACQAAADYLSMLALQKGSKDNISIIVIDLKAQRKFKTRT
In words: Yeast two-hybrid assay confirming BTH responsiveness. In kind it is cell-based. The settings on record: 50, 100, and 200 μM (applied 25, 50, 100, 200 μM). The protocol: (§1) Plasmids for three representative mutant clones (27-9, 27-18, and 27-36) were isolated from the primary yeast cells and transformed into a pAD-HAB1 expressing YRG-2 reporter strain (Park et al., Science 324:1068-1071 (2009)) in which Ga14 drives expression of a LacZ reporter gene to allow colorimetric indication of agonist response. Fenhexamid was applied at concentrations of 1, 5, 10, 25, and 50 μM. […] Mutant 27-36 was responsive to fenhexamid at 25 and 50 μM concentrations.
Given the plasticity of PYR1 indicated by these experiments, we sought to establish if an orthogonal receptor could be isolated for a target ligand that was not prescreened for weak binding using the yeast competition assays described above. The same screening methodology as described above was used to screen for mutants that respond to BTH (acibenzolar-s-methyl). […] Yeast two-hybrid assay confirmed BTH responsiveness for representative mutant clone BTH-9. […] was applied at concentrations of 25, 50, 100, and 200 μM, and mutant BTH-9 was responsive to BTH at concentrations of 50, 100, and 200 μM. Thus, the plasticity of PYR1 enables many orthogonal receptor variants to be isolated.

For test [6], the target named is wild-type PYR1 (WT) (Arabidopsis thaliana, UniProt O49686). The test is described as follows: Responsiveness of PYR1 K59 mutants to ABA and dichlobenil. In kind it is cell-based. As to the method:
(§2) To test these two hypotheses, a series of K59 mutants were constructed in PYR1 and examined for their sensitivity to the native ligand ABA and the orthogonal ligand dichlobenil (Table 6). Dichlobenil was chosen as a model orthogonal ligand for these studies because it was observed that it is a weak PYR/PYL agonist (i.e., it can weakly activate receptors at concentrations of 200 μM or higher). Dichlobenil therefore provides a useful test molecule with which to probe a mutant's sensitivity to an orthogonal ligand.

Test [7] relates to PYR/PYL receptors. In words: Observed weak agonism of PYR/PYL receptors. The following applies: weak PYR/PYL agonist. As to the method:
as §2

Test [8] concerns the target T2, 6×-His-PYR1(27-18) (S47P, K59R, Y120H) (Arabidopsis thaliana, UniProt O49686, K59R/S47P/Y120H).
T2 construct: 6x-His (N); made in house
In words: In vitro PP2C phosphatase activity assay (receptor activation = inhibition of PP2C). It is filed as biochemical. The settings on record: mutant 27-18; increasing concentrations; 10 mM Mn++ buffer; FIG. 1. As to the method: (§3) FIGS. 1A-1B. PYR1 mutant 27-18 confers responsiveness to fenhexamid but not ABA. Representative PYR1 mutant 27-18 (comprising S47P, K59R, and Y120H substitution mutations) was tested for responsiveness to abscisic acid (“ABA”) (FIG. 1A) and fenhexamid (FIG. 1B) at increasing concentrations as compared to a wild-type PYR1 control using an in vitro PP2C phosphatase activity assay.
(§4) To probe orthogonal receptor-ligand interactions further, recombinant protein was expressed for the fenhexamid-responsive mutant 27-18, which has three mutations in PYR1. 6×-His-PYR1(27-18) protein was expressed and purified alongside wild-type PYR1 protein. Both proteins were tested for their ability to inhibit PP2C activity in response to increasing concentrations of either ABA or fenhexamid using phosphatase activity assays, in which activation of the PYR/PYL receptor is monitored by inhibition of PP2C activity (FIG. 1).

For test [9], the target named is T3, wild-type PYR1 protein (Arabidopsis thaliana, UniProt O49686).
T3 construct: made in house
T3 sequence (O49686 whole entry): as the sequence (O49686 whole entry F159L) above, with L159F counted along it
T3 sequence (Q9CAJ0 23-511 partner): as the sequence (Q9CAJ0 23-511 partner) above
The test is described as above. It is filed as biochemical. The following applies: increasing concentrations, 10 mM Mn++ buffer, FIG. 1. As to the method:
as §3, §4

Test [10] deals with T4, PYR1 mutant 74A-1 (Arabidopsis thaliana, UniProt O49686, H60R/K59R/N151D).
T4 construct: expressed in transfected cells
T4 sequence (Q9CAJ0 23-511): as the sequence (Q9CAJ0 23-511 partner) above
T4 sequence (O49686 whole entry K59R/H60R/N151D): as the sequence (O49686 whole entry F159L) above, with K59R, H60R, N151D, L159F counted along it
The test is described as follows: Yeast two-hybrid assay confirming bromoxynil responsiveness. It is filed as cell-based. The settings on record: 10, 25, and 50 μM (applied 5, 10, 25, 50 μM). The protocol:
as §1
(§5) Screens for bromoxynil (Table 2), dichlobenil (Table 3), and benoxacor (Table 4) responsive PYR1 mutants were conducted as described above for fenhexamid, each utilizing 200 μM test compound and the A′ library, generated as described above. Yeast two-hybrid assay confirmed bromoxynil responsiveness for representative mutant clones 74A-1 and 74A-2. Bromoxynil was applied at concentrations of 5, 10, 25, and 50 μM. Both mutants 74A-1 and 74A-2 were responsive to bromoxynil at concentrations of 10, 25, and 50 μM.

The target in test [11] is T5, PYR1 mutant 74A-2 (Arabidopsis thaliana, UniProt O49686, K59R/S92T).
T5 construct: expressed in transfected cells; host or cells: Saccharomyces cerevisiae two-hybrid reporter strain expressing pAD-HAB1 (YRG-2 is named only for the fenhexamid confirmation)
T5 sequence (O49686 whole entry K59R/S92T): as the sequence (O49686 whole entry F159L) above, with K59R, S92T, L159F counted along it
T5 sequence (Q9CAJ0 23-511, further chain): as the sequence (Q9CAJ0 23-511 partner) above
The description is as above. It is filed as cell-based. The settings on record: 10, 25, and 50 μM (applied 5, 10, 25, 50 μM). As to the method:
as §1, §5

PYL1, sequence (Q8VZS8 whole entry): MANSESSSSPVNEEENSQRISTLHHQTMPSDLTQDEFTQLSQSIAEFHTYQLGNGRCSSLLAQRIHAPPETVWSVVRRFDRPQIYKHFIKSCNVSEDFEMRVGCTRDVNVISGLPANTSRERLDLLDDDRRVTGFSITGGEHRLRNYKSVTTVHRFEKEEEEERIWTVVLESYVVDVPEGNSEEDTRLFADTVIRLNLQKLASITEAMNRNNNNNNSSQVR
PYR1, sequence (O49686 whole entry): as the sequence (O49686 whole entry F159L) above, with L159F counted along it
wild-type PYR1 (WT), sequence (O49686 whole entry): as the sequence (O49686 whole entry F159L) above, with L159F counted along it
wild-type PYR1 (WT), sequence (Q9CAJ0 23-511 partner): as the sequence (Q9CAJ0 23-511 partner) above
T2 sequence (O49686 whole entry S47P/K59R/Y120H): as the sequence (O49686 whole entry F159L) above, with S47P, K59R, Y120H, L159F counted along it
T2 sequence (Q9CAJ0 23-511, stated change not applied, further chain): as the sequence (Q9CAJ0 23-511 partner) above
PYL2, sequence (O80992 whole entry): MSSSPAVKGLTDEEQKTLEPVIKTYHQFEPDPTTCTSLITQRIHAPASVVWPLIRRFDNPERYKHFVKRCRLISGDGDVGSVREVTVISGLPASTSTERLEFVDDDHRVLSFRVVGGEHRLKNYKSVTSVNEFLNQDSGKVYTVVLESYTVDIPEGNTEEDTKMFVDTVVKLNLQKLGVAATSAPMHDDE

As to `O=S(=O)(NCc1ccccn1)c1ccc(Br)c2ccccc12` [pyrabactin], the Responsiveness to pyrabactin result was “strong responsiveness” in test [1], “strong responsiveness” in test [2] and “do not” in test [3].

Regarding `N#Cc1cc(Cl)c(O)c(Cl)c1` [chloroxynil], the “ability to reduce ABA-promoted PYR/PYL-PP2C protein-protein interactions” value in test [4] was “compete for ABA”.

Consider `CSC(=O)c1cccc2nnsc12` [BTH, acibenzolar-s-methyl], for which, in test [5], the “Responsiveness to BTH (yeast two-hybrid)” value was “responsive”.

In the case of `N#Cc1c(Cl)cccc1Cl` [dichlobenil], in test [6], the “Responsiveness, Dichlobenil [50 μM]” value is “not activated”. The “ability to reduce ABA-promoted PYR/PYL-PP2C protein-protein interactions” value in test [4] is “compete for ABA”. Moreover, in test [7], the “Concentration at which receptors are weakly activated” value was not below 200 µM.

Take `CC1=CC(=O)CC(C)(C)[C@@]1(O)/C=C/C(C)=C\C(=O)O` [ABA, abscisic acid]: the results for the “Receptor activation (inhibition of PP2C activity)” value in [8] and in test [9] were “failed to activate” and “efficiently activated”, respectively.

With `N#Cc1cc(Br)c(O)c(Br)c1` [bromoxynil], the “ability to reduce ABA-promoted PYR/PYL-PP2C protein-protein interactions” value in [4] is “compete for ABA”. In addition, the “Responsiveness to bromoxynil (yeast two-hybrid)” value in test [10] and in [11] was “responsive” throughout.

Take `O=c1oc2ccccc2c(O)c1C1CCCc2ccccc21` (centres unmarked) [coumatetralyl]: the “ability to reduce ABA-promoted PYR/PYL-PP2C protein-protein interactions” value in test [4] is “compete for ABA”.
